Laboratory results taken from ChEMBL document CHEMBL1201862, “PubChem BioAssay data set” (2004).
Active and inactive are the calls of the source.

Experiments:
[1] = target: Photoreceptor-specific nuclear receptor (Homo sapiens, UniProt Q9Y5X4); assay type: functional, cell-based;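 also: CHO-S cells with Gal4-NCOR and VP16-NR2E3 two-hybrid luciferase reporter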
[2] = target: SWI/SNF-related matrix-associated actin-dependent regulator of chromatin subfamily A member 2 (Homo sapiens, UniProt P51531); experiment: Luminescence-based cell-based high throughput dose response assay to identify activators of the function of SWI/SNF related, matrix associated, actin dependent regulator of chromatin, subfamily a, member 2 (SMARCA2, BRM).; assay type: functional
[3] = viability loss in HEK293T cells – cell-based, cherry-picks, cytotoxicity control for HIV Vif inhibitor project, dose response (AID 652208); assay type: functional
[4] = viability of HCT116 lacking mutant beta-catenin – cell-based, human colon tumor, dose response (AID 1045); assay type: functional;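 also: HCT116 colon tumor cells with beta catenin knocked out; cells exposed to compound for 60 hours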
[5] = HEK-293T viability loss after treatment – luminescence, T-cell screen hits, cytotoxicity control for TCR NF-kB inhibitor project, dose response (AID 489026); assay type: functional, cell-based;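 also: cells exposed to compound about 14 hours before the viability readout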
[6] = viability of PTEN-deleted HCT116 cells – cell-based, HCT116 PTEN knockout, dose response (AID 1047); assay type: functional;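 also: HCT116 colon tumor cells with PTEN knocked out; cells exposed to compound for 60 hours before readout; potency for loss of cell viability measured by luminescence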
[7] = Counterscreen for activators of the function of SWI/SNF related, matrix associated, actin dependent regulator of chromatin, subfamily a, member 2 (SMARCA2, BRM): Luminescence-based cell-based high throughput dose response assay to identify non-selective compounds using the VP16 reporter assay.; assay type: functional
[8] = target: T1, Heat shock factor protein 1 (Mus musculus, UniProt P38532); experiment: enhancement of HSF1-driven luciferase signal – cell-based, NIH3T3, luminescence, dose retest, confirmation (AID 435004); assay type: functional;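 also: stress induced by proteasome inhibitor MG132 added 30 min after compound; luciferase reporter driven by HSF1 response element in NIH3T3 cells; actives raise luminescence as potentiators of the MG132 stress response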
T1 sequence (P38532 whole entry): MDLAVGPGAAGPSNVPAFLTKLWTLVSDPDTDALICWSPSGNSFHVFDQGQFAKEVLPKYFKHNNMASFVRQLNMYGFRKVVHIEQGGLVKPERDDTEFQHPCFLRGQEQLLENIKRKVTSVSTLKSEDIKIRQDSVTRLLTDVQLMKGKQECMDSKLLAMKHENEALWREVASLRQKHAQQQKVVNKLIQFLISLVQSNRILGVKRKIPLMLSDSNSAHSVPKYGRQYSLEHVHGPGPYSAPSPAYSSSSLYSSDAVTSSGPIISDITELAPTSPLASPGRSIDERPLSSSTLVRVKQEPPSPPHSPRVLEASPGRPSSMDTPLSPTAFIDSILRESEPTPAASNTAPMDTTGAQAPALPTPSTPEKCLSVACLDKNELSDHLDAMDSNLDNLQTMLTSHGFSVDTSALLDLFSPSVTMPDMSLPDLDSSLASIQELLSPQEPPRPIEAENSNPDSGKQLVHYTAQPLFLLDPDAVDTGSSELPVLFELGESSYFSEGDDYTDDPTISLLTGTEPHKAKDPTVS

fMet-Leu-Phe receptor = fMet-Leu-Phe receptor (Homo sapiens, UniProt P21462); experiment: formyl peptide receptor binders – dose response (AID 519); assay type: functional
[9] = optical artefact potency, substrate without enzyme – biochemical, fluorescence intensity, triplicate, artefact control for kallikrein-7 zymogen activator project, dose response (AID 720493)
Kallikrein-7 = Kallikrein-7 (Homo sapiens, UniProt P49862); experiment: Fluorescence Intensity-based biochemical primary high throughput dose response assay to identify activators of kallikrein-7 (K7) zymogen.
Cytochrome P450 3A4 = Cytochrome P450 3A4 (Homo sapiens, UniProt P08684);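 also: CYP3A4 tested as one member of a cytochrome P450 panel screen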
[10] = target: NAD-dependent protein deacylase sirtuin-5, mitochondrial (Homo sapiens, UniProt Q9NXA8); experiment: sirtuin-5 deacylation blockers, concentration series – biochemical, fluorescence imaging, cherry-pick, set 5, dose response (AID 720591);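 also: desuccinylation of succinyl peptide AMC substrate read as fluorescence after trypsin release; potency of inhibitors that lower fluorescence and may act on trypsin instead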
[11] = target: T2, Short transient receptor potential channel 4 (Mus musculus, UniProt Q9QUQ5); experiment: calcium entry via TRPC4 opening agents – cell-based, HEK293 TRPC4/mu-opioid, Fluo-4 calcium, dose response (AID 434937); assay type: functional
T2 sequence (Q9QUQ5 whole entry): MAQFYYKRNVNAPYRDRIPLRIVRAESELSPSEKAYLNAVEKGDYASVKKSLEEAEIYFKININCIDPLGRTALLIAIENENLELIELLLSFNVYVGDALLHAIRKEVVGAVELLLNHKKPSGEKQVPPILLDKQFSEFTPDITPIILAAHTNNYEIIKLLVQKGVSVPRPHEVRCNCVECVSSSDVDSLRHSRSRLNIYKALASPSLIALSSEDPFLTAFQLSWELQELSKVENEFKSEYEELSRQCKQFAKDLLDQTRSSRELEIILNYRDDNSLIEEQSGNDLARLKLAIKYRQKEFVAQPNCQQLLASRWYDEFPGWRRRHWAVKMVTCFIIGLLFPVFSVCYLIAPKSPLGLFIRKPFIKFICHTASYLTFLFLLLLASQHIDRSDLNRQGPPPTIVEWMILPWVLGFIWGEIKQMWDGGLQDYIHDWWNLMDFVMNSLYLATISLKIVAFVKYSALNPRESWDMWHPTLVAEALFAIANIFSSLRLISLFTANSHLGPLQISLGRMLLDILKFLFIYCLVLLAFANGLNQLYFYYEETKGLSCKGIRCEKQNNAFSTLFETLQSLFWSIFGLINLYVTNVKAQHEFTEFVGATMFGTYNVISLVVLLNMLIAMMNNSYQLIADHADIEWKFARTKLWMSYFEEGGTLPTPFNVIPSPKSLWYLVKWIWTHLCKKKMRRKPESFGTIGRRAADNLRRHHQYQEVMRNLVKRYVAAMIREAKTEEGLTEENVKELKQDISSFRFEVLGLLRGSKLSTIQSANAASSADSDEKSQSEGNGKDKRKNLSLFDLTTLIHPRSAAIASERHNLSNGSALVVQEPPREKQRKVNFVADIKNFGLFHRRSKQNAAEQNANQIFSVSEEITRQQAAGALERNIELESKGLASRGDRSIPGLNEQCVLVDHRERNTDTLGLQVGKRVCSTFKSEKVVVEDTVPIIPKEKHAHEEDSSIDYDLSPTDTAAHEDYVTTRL

[12] = target: T2, Short transient receptor potential channel 4; experiment: block of DAMGO-driven TRPC4 calcium entry – cell-based, HEK293 TRPC4/mu-opioid, Fluo-4 calcium, dose response (AID 434942); assay type: functional;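 also: potency of inhibitors blocking the TRPC4 calcium response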
[13] = target: T3, Trace amine-associated receptor 1 (Homo sapiens, UniProt Q96RJ0); experiment: Fluorescence-based cell-based high throughput dose response assay to identify agonists of the human trace amine associated receptor 1 (TAAR1).; assay type: functional
T3 sequence (Q96RJ0 whole entry): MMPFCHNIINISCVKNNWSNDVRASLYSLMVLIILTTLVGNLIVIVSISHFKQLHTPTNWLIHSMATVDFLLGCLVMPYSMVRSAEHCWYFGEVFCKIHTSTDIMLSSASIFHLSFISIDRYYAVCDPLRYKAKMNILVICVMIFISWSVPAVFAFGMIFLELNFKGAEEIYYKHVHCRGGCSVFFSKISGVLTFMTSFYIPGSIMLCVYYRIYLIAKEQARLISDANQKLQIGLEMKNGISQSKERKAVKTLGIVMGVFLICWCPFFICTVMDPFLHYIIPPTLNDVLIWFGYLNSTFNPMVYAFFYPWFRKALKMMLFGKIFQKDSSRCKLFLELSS

cells [14] = assay type: functional, cell-based
[15] = target: T3, Trace amine-associated receptor 1; experiment: Counterscreen for agonists of the human trace amine associated receptor 1 (hTAAR1): Fluorescence-based cell-based high throughput dose response assay to identify hTAAR1 agonist that also desensitize TAAR1 receptor response.; assay type: functional
cells [16] = assay type: functional, cell-based; remark: listed apart in the source
[17] = inhibition of ADAM10 peptide cleavage – biochemical, FRET peptide substrate, recombinant human ADAM10, selectivity assay for ADAM17 exosite inhibitor project, dose response (AID 743259);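 also: ADAM10 enzyme cleaving a FRET peptide substrate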
[18] = target: Disintegrin and metalloproteinase domain-containing protein 17 (Homo sapiens, UniProt P78536); experiment: exosite inhibitors of ADAM17, dose response, biochemical (AID 743260)
[19] = Counterscreen for […] of the human trace amine associated receptor 1 (TAAR1): Fluorescence-based cell-based high throughput dose response assay to identify nonselective Ga16 agonists.; assay type: functional
[20] = target: T3, Trace amine-associated receptor 1; experiment: Fluorescence-based cell-based high throughput dose response assay to identify antagonists of the human trace amine associated receptor 1 (TAAR1).; assay type: functional
[21] = Counterscreen for antagonists of the human trace amine associated receptor 1 (hTAAR1): Fluorescence-based cell-based high throughput dose response assay to identify nonselective Ga16 antagonists.; assay type: functional
[22] = target: T3, Trace amine-associated receptor 1; experiment: Counterscreen for antagonists of the human trace amine associated receptor 1 (hTAAR1): Fluorescence-based cell-based high throughput dose response assay to identify TAAR1 Agonists.; assay type: functional
[23] = A549 lung cell viability reduction – CellTiter-Glo luminescence, cherry-pick, cytotoxicity control, dose response (AID 743484); assay type: functional, cell-based
[24] = target: Fructose-bisphosphate aldolase (Mycobacterium tuberculosis, UniProt P9WQA3); experiment: Fluorescence-based biochemical high throughput dose response assay for inhibitors of the fructose-bisphosphate aldolase (FBA) of M. tuberculosis.; assay type: functional
HEK293 = experiment: viability loss in HEK293T cells – cell-based, ATP luminescence, cherry-pick samples, cytotoxicity control, dose response (AID 687005); assay type: functional; settings: Homo sapiens;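 also: cells exposed to compound for 48 hours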
HeLa = experiment: viability loss in HeLa cells – cell-based, ATP luminescence, cherry-pick samples, cytotoxicity control, dose response (AID 687004); assay type: functional; settings: Homo sapiens
[25] = HEK293 Cytotoxicity Assay Measured in Cell-Based System Using Plate Reader - 7071-01_Inhibitor_Dose_CherryPick_Activity_Set2.; assay type: functional
A549 = experiment: viability loss in A549 cells – cell-based, plate reader, cherry-pick samples, cytotoxicity control, dose response (AID 687028); assay type: functional; settings: Homo sapiens
[26] = human cervical cancer cell viability loss – 24 h, plate reader, dry powder, cytotoxicity control, dose response (AID 686928); assay type: functional, cell-based; settings: HeLa
[27] = YAP1 overexpression rescue of CTGF inhibition – DLD1 cells, RT-qPCR, cherry-pick, mechanism study for YAP1 pathway inhibitor project, dose response (AID 1053127); assay type: functional, cell-based; settings: DLD-1
[28] = viability loss in HepG2 hepatoma cells – cell-based, cherry-picks, set 5, cytotoxicity control, dose response (AID 1053118); assay type: functional
[29] = blockade of melanocortin 4 receptor signaling – cell-based, plate reader, cherry pick, counter-screen for LGR2 antagonist project, dose response (AID 743444); assay type: functional;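 also: transfected HEK 293 cells stimulated with alpha-MSH peptide; potency of inhibitors of the alpha-MSH evoked signal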
[30] = viability loss in A549 lung cancer cells – cell-based, cherry-picks, […], cytotoxicity control, dose response (AID 1053119); assay type: functional
[31] = blockers of FN fibrillogenesis by fibroblasts – AH1F cells, Alexa488-FN fluorescence, cherry-picks, dose response (AID 1035475); assay type: functional, cell-based
[32] = blockers of bursicon-stimulated LGR2 cAMP reporter – cell-based, HEK293, CRE-luciferase reporter, cherry pick, set 2, dose response (AID 743343); assay type: functional;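 also: transfected cells were stimulated with diluted bursicon conditioned medium after compound addition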
[33] = A549 cell cytotoxicity, dose response, cytotoxicity control, plate reader, cherry-pick, antagonist series (AID 743412); assay type: functional, cell-based
[34] = viability loss in HEK293 kidney cells – cell-based, cherry-picks, set 5, cytotoxicity control, dose response (AID 1053117); assay type: functional
[35] = viability loss in HEK293 cells – cell-based, plate reader, cherry-picked samples, cytotoxicity control, dose response (AID 743446); assay type: functional

Kallikrein-7, sequence (P49862 whole entry): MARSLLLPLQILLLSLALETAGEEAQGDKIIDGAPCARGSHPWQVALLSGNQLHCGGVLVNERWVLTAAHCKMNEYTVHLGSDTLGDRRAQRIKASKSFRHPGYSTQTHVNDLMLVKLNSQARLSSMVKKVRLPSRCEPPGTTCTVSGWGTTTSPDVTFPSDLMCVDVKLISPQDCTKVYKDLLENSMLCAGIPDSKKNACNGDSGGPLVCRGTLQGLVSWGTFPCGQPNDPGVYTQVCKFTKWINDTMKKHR
Photoreceptor-specific nuclear receptor, sequence (Q9Y5X4 whole entry, the tested form may be a part): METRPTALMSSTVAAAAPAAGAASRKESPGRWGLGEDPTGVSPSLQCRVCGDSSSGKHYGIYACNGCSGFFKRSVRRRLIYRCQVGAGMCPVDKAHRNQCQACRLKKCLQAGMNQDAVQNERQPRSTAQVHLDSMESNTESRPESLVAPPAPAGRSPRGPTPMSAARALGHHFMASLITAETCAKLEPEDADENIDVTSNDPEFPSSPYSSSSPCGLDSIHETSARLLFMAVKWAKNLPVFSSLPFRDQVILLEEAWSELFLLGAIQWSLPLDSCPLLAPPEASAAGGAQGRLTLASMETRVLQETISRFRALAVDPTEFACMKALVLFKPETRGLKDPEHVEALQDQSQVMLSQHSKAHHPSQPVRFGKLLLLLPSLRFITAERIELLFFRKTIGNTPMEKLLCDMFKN
fMet-Leu-Phe receptor, sequence (P21462 whole entry): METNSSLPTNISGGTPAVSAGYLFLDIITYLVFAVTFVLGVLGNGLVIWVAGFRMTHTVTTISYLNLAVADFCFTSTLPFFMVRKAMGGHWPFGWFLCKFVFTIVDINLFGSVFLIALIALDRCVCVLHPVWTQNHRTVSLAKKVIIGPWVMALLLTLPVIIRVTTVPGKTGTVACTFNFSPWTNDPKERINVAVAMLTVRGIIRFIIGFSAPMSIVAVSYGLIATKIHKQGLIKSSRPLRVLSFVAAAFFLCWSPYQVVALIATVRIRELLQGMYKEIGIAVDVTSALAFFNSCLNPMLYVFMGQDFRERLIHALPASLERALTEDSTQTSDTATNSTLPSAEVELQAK
Cytochrome P450 3A4, sequence (P08684 whole entry): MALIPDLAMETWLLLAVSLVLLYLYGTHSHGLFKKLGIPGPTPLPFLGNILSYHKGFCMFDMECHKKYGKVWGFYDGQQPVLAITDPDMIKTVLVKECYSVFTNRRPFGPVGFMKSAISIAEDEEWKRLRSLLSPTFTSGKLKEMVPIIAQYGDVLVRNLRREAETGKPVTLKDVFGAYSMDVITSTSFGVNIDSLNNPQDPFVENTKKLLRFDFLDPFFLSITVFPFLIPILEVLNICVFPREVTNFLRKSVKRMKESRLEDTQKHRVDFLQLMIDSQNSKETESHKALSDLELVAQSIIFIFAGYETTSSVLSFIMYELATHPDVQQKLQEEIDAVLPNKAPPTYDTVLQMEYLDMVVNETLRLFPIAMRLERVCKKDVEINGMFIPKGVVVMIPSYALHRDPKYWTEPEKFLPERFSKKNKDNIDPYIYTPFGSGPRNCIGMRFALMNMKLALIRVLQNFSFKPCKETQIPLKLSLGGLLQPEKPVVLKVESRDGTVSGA
Fructose-bisphosphate aldolase, sequence (P9WQA3 whole entry): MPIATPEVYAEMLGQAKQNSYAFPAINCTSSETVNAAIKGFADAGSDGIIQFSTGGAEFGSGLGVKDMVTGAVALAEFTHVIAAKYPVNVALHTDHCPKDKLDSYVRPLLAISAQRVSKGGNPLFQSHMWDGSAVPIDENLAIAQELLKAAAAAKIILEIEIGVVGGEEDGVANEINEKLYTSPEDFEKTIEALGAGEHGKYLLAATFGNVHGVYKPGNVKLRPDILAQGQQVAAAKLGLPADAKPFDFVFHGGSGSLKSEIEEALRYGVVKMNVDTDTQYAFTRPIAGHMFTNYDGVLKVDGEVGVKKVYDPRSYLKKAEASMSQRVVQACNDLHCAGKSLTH
Disintegrin and metalloproteinase domain-containing protein 17, sequence (P78536 whole entry, the tested form may be a part): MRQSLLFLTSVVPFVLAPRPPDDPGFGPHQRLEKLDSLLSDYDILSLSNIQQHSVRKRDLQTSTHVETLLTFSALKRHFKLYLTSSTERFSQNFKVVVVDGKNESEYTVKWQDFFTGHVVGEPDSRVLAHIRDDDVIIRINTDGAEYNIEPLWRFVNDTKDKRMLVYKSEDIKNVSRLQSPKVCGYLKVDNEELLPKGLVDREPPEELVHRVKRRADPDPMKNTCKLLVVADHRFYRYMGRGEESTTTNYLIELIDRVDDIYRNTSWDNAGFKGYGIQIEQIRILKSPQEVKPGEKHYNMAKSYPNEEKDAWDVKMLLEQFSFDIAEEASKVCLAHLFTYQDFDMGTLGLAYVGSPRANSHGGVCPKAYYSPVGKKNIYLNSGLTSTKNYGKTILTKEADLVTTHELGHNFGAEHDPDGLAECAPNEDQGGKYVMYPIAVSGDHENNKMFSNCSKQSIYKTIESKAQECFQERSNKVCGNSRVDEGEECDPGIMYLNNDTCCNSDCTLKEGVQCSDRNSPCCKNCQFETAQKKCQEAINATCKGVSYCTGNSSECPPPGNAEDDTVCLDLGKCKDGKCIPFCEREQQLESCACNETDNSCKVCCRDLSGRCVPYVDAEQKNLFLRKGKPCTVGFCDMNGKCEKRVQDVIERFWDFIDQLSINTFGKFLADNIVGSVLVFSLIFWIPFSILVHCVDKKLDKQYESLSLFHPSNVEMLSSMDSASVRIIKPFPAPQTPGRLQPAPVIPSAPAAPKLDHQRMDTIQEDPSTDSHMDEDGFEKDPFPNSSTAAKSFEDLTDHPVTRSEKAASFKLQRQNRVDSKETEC
SWI/SNF-related matrix-associated actin-dependent regulator of chromatin subfamily A member 2, sequence (P51531 whole entry): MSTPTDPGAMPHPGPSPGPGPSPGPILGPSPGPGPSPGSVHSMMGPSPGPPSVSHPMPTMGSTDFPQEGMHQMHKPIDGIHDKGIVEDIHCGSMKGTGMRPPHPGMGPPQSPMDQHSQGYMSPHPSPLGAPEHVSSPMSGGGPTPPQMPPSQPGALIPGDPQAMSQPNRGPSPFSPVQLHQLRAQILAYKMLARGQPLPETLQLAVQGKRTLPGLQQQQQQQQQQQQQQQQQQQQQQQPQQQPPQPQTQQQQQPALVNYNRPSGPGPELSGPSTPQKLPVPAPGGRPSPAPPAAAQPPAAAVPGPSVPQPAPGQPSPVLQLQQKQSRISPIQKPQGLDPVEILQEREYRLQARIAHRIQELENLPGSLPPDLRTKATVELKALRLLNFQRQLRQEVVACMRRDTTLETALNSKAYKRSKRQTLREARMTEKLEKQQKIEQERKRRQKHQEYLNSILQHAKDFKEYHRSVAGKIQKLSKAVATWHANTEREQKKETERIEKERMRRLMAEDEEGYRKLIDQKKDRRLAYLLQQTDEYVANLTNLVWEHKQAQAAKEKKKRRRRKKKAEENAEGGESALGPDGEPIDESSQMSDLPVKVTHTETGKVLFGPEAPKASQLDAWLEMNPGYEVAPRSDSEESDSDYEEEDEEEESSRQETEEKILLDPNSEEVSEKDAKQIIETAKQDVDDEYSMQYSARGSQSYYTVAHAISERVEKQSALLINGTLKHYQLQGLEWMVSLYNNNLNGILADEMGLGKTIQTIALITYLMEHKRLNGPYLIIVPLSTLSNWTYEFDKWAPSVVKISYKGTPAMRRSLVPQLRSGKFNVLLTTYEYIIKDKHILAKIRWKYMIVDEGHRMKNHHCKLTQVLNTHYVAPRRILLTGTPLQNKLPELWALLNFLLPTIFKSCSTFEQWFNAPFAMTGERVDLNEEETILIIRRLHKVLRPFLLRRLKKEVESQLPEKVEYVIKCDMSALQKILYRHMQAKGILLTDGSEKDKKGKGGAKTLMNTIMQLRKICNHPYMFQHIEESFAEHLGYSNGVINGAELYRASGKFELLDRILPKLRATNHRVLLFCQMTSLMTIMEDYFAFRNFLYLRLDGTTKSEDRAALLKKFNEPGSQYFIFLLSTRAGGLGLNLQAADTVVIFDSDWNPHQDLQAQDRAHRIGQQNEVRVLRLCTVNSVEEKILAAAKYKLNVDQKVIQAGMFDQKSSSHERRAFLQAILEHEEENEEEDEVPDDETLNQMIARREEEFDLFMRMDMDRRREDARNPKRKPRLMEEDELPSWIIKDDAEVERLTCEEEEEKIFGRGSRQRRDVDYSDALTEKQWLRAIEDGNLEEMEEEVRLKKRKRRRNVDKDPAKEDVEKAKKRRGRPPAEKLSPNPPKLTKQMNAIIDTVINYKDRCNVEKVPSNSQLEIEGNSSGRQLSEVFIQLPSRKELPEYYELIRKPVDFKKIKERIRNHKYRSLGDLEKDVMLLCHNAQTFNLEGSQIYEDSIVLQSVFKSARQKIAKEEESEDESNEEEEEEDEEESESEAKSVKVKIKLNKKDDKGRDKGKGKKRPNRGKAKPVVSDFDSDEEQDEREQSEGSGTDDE
NAD-dependent protein deacylase sirtuin-5, mitochondrial, sequence (Q9NXA8 whole entry): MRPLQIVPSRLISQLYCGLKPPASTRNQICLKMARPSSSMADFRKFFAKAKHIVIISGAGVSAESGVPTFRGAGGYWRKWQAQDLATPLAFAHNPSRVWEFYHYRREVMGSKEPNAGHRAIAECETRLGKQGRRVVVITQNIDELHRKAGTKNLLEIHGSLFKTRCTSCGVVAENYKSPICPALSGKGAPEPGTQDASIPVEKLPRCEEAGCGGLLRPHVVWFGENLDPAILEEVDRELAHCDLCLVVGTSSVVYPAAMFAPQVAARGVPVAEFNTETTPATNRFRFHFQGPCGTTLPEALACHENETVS

Cc1cc(NC(=O)CSc2nc3c(sc4ccccc43)c(=O)n2CCCN2CCOCC2)[nH]n1
IC50 [1]: 0.783 µM (active)
EC50 [2]: > 91.2 µM (inactive)
AC50 [3]: > 52 µM (inactive)
EC50 [4]: 285 µM (active)
IC50 [5]: > 80 µM (inactive)
EC50 [6]: 100 µM (active)
EC50 [7]: > 91.2 µM (inactive)
EC50 [8]: 37.9 µM (active)

COC(=O)c1[nH]c(C)c(C(=O)C2=C(O)C(=O)N(CCN3CCOCC3)C2c2cccs2)c1C (stereo unspecified)
Ki (fMet-Leu-Phe receptor): 5 µM (active)

COc1ccc(-c2coc3c(CN4CCCCC4C)c(O)ccc3c2=O)cc1 (stereo unspecified)
EC50 [9]: > 2.58 µM (active)
EC50 (Kallikrein-7): > 2.58 µM (active)

CCc1ccc(N(C(=O)c2csnn2)C(C(=O)NCc2ccccc2)c2ccco2)cc1 (stereo unspecified)
AC50 (Cytochrome P450 3A4): 1.41 µM (inconclusive)
AC50 [10]: > 30 µM (inactive)

OC(CNC1CCCc2ccccc21)COc1c(Cl)cccc1Cl (stereo unspecified)
EC50 [11]: 5.96 µM (active)
EC50 [12]: 1.33 µM (active)
EC50 [13]: 1.57 µM (active)
EC50 (cells [14]): 11.7 µM (inactive)
IC50 [15]: 8.84 µM (active)
IC50 (cells [16]): 13.9 µM (inactive)

Cc1cc(Nc2ccc(Cl)cc2)n(-c2cccc(Cl)c2)n1
IC50 [17]: 21.3 µM (inactive)
IC50 [18]: > 69.5 µM (inactive)

Cc1ccc(CSCC(=O)Nc2cc(S(=O)(=O)N3CCOCC3)ccc2OCC(F)(F)F)cc1
EC50 [19]: > 29.9 µM (inactive)
IC50 [20]: 1.25 µM (active)
IC50 [21]: > 29.9 µM (inactive)
EC50 [22]: > 29.9 µM (inactive)

CC1(Cc2ccccc2C#N)C(=O)Nc2cc(-c3ccccc3Cl)ccc21 (stereo unspecified)
AC50 [23]: > 52 µM (inactive)

COc1cccc(/C=C/c2nc(S(=O)(=O)c3ccccc3)c(N3CCC(C(N)=O)CC3)o2)c1
IC50 [24]: 0.676 µM (active)

C[C@@H]1CN([C@@H](C)CO)S(=O)(=O)c2ccc(C#Cc3ccccn3)cc2O[C@H]1CN(C)Cc1ccccc1
AC50 (HEK293): 7.04 µM (active)
AC50 (HeLa): 39.1 µM (active)
AC50 [25]: 7.04 µM (active)

C[C@H](CO)N1C[C@H](C)[C@H](CN(C)C(=O)Nc2ccc(C(F)(F)F)cc2)OCCCC[C@H](C)Oc2ccc(NS(=O)(=O)c3ccc(F)cc3)cc2C1=O
AC50 (A549): 33.6 µM (active)

Cc1ccc(-n2cnc(=O)c3ccccc32)cc1Cl
AC50 [26]: > 160 µM (inactive)

COc1ccccc1C(=O)Nc1ccc2c(c1)C(=O)N(C)C[C@H](OC)[C@@H](C)CN(C(C)=O)[C@@H](C)CO2
AC50 [27]: 8.95 µM (active)

C[C@@H]1CN([C@@H](C)CO)C(=O)c2cccc(NC(=O)Nc3ccc(C(F)(F)F)cc3)c2O[C@@H]1CN(C)C(=O)Nc1cccc2ccccc12
AC50 [28]: 10.2 µM (active)
AC50 [29]: 22.8 µM (active)
AC50 [30]: 12.8 µM (active)
AC50 [31]: 12.9 µM (active)
AC50 [32]: 25 µM (active)
AC50 [33]: 27.8 µM (active)
AC50 [34]: 12.7 µM (active)
AC50 [35]: > 52 µM (inactive)
